Results taken from publication PMC4648050, “Discovery of Inhibitors of Trypanosoma brucei by Phenotypic Screening of a Focused Protein Kinase Library” (Chemmedchem, 2015).

Columns and labels:
Format in all cases: biochemical, human/mammalian
Conditions in all cases: compound at 10 μM, read-out: % of activity respect of the control
[1] = target: YES1 (Homo sapiens, UniProt P07947); assay: Kinase panel: YES1
Procedure: (§1) The DDU kinase-focused compound set contains lead-like scaffolds that are designed to target protein kinases; they have kinase hinge binding motifs. Four of the 1H-imidazopyrazinones were screened against a human/mammalian kinase panel at the University of Dundee (http://www.kinase-screen.mrc.ac.uk) at a concentration of 10 μM. At the time of testing the panel contained 79 mammalian kinases selected to provide a broad coverage of the mammalian kinome (∼500 kinases in the human genome).[3] None of the compounds were active against any of the kinases at 10 μM.

[2] = target: HIPK2 (Homo sapiens, UniProt Q9H2X6); assay: Kinase panel: HIPK2
Sequence of HIPK2 (Q9H2X6 whole entry): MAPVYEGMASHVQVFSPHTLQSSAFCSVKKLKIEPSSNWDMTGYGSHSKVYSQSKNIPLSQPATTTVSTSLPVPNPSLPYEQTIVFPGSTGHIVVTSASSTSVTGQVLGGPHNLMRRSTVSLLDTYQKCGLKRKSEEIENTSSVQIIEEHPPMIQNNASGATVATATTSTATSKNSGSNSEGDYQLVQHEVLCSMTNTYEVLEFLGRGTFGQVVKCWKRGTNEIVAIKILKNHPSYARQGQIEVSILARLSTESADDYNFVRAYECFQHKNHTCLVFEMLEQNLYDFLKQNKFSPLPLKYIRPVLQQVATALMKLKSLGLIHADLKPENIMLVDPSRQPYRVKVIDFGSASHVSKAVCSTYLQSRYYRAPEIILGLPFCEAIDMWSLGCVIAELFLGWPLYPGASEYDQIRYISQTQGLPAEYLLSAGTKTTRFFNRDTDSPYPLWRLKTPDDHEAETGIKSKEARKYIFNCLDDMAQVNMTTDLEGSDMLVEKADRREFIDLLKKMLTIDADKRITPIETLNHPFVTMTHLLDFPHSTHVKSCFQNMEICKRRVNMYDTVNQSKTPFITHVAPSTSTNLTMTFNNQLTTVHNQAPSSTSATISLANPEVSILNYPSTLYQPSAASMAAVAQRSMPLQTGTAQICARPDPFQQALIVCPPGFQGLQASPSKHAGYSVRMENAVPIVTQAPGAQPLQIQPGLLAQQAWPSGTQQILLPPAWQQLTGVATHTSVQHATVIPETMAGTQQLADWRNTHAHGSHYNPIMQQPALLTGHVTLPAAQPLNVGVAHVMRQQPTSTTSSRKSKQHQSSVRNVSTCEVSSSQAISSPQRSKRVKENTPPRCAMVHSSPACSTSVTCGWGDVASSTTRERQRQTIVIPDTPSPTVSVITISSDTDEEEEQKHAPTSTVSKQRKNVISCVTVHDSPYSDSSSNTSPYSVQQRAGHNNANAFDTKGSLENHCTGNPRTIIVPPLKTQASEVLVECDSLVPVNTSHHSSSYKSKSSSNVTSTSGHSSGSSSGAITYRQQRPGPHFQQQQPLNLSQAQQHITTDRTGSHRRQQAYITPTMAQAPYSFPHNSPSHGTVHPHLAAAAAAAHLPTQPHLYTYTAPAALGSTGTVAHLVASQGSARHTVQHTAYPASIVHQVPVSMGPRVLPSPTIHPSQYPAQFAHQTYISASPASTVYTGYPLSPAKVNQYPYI
Procedure: as §1

[3] = target: JNK1 (Homo sapiens, UniProt P45983); assay: Kinase panel: JNK1
Sequence of JNK1 (P45983 whole entry): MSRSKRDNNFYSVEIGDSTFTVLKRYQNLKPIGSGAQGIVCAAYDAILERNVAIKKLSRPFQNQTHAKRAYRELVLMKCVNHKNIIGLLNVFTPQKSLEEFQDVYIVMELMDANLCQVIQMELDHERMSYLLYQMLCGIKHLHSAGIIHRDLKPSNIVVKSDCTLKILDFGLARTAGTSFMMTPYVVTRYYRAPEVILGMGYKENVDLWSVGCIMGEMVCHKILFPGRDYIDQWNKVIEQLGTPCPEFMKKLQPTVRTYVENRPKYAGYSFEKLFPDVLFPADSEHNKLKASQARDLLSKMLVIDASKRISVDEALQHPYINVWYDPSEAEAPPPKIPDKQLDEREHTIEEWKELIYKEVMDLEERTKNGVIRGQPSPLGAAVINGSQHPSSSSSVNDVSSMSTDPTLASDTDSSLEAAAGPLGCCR
Procedure: as §1

[4] = target: T1, PRAK (Homo sapiens, UniProt Q8IW41); assay: Kinase panel: PRAK
T1 sequence (Q8IW41 1-473): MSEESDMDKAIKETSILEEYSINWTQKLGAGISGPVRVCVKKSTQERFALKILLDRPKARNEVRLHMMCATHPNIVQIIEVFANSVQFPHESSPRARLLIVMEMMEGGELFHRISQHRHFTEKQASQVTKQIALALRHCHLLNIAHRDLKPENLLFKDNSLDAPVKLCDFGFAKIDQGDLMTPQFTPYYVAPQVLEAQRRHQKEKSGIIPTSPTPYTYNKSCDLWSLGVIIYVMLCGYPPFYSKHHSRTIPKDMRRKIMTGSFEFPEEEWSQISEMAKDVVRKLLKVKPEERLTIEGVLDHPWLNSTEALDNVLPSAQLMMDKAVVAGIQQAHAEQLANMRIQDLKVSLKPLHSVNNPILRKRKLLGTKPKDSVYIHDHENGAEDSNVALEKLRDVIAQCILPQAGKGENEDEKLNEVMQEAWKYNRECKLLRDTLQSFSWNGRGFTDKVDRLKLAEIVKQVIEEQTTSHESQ
Procedure: as §1

[5] = target: IR-HIS (Homo sapiens, UniProt P06213); assay: Kinase panel: IR-HIS
Sequence of IR-HIS (P06213 28-1382): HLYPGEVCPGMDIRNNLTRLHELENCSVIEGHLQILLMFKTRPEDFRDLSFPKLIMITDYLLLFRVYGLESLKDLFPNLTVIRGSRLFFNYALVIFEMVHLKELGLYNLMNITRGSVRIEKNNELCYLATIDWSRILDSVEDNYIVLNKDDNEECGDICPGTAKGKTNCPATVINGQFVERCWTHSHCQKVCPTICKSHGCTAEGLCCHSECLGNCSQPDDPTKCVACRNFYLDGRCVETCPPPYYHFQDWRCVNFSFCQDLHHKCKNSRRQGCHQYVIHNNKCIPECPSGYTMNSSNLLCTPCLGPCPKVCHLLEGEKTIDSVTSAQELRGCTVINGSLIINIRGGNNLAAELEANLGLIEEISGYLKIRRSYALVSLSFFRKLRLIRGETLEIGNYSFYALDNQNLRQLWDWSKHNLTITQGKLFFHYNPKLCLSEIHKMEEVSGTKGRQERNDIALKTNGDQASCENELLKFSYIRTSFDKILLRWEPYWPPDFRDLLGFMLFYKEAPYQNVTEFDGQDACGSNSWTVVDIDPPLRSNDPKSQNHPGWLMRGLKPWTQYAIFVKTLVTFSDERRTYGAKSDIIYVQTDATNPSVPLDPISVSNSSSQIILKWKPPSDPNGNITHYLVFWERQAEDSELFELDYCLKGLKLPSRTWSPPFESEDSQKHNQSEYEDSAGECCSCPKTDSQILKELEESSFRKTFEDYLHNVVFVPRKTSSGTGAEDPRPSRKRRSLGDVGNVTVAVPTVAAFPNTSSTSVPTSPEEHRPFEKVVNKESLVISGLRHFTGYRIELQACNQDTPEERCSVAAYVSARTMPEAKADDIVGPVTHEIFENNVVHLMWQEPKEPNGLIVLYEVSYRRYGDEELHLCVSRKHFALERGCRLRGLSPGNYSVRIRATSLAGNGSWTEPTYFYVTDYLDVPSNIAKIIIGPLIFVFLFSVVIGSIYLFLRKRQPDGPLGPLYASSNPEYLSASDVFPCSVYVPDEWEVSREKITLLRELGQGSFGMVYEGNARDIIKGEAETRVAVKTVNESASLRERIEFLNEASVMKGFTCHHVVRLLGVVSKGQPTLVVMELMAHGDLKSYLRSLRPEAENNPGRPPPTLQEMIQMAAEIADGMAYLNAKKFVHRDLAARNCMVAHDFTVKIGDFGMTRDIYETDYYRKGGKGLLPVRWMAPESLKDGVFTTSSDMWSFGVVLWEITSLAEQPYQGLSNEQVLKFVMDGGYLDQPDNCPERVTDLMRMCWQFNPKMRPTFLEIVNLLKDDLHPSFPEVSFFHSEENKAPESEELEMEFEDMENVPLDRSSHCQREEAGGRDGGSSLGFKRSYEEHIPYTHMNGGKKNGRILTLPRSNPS
Procedure: as §1

[6] = target: CSK (Homo sapiens, UniProt P41240); assay: Kinase panel: CSK
Sequence of CSK (P41240 whole entry): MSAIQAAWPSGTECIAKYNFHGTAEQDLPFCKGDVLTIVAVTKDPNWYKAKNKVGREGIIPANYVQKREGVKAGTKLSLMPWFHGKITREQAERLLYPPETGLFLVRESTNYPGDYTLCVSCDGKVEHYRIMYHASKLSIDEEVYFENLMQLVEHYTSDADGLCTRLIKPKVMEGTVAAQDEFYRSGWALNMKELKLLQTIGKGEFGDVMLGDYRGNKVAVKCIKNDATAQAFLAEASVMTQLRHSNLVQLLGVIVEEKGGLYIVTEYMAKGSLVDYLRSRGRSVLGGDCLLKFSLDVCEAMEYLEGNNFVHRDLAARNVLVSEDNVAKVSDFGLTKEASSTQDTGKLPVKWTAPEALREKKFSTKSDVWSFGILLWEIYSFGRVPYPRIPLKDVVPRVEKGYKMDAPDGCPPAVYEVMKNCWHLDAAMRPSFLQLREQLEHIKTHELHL
Procedure: as §1

[7] = target: T2, EPH-B3 (Homo sapiens, UniProt P54753); assay: Kinase panel: EPH-B3
T2 sequence (P54753 34-998): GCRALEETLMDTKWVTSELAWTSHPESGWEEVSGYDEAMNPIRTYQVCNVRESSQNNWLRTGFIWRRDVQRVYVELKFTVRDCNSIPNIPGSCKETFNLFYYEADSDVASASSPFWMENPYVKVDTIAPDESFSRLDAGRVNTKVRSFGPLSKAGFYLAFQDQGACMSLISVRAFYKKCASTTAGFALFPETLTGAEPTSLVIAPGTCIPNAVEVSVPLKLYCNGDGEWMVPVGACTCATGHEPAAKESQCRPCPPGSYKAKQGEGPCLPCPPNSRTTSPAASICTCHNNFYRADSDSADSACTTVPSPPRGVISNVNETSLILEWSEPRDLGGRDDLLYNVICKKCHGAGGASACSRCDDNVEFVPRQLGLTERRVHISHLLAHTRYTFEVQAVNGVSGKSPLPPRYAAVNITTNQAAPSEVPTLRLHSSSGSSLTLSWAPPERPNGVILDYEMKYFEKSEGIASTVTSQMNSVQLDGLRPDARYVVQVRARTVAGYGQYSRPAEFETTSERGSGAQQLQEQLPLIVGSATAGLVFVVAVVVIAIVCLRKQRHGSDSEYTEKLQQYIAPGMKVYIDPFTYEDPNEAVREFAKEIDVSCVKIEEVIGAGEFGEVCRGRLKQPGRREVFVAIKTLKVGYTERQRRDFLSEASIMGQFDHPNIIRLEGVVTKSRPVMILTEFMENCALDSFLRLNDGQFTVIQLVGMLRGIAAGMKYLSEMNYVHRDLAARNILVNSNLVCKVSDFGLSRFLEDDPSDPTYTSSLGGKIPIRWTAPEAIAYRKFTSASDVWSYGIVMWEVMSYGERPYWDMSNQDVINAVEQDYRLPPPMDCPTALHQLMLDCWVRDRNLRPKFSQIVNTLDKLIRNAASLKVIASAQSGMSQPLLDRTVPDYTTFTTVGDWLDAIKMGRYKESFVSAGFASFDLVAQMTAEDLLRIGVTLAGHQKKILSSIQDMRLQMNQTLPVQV
Procedure: as §1

[8] = target: MST4 (Homo sapiens, UniProt Q9P289); assay: Kinase panel: MST4
Sequence of MST4 (Q9P289 whole entry): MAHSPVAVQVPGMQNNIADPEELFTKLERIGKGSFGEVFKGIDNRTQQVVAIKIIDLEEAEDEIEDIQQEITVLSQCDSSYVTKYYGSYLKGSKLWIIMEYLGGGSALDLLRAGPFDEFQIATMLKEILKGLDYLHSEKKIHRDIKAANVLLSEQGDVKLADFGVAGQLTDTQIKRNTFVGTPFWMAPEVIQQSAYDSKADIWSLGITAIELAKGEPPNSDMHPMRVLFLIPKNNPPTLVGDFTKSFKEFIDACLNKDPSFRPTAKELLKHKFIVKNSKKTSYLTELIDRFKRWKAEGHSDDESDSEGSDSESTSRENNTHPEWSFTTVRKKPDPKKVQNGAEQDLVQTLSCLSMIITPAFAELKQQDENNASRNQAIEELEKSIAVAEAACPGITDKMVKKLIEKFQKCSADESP
Procedure: as §1

[9] = target: T3, IKKe (Homo sapiens, UniProt Q14164); assay: Kinase panel: IKKe
T3 sequence (Q14164 1-716): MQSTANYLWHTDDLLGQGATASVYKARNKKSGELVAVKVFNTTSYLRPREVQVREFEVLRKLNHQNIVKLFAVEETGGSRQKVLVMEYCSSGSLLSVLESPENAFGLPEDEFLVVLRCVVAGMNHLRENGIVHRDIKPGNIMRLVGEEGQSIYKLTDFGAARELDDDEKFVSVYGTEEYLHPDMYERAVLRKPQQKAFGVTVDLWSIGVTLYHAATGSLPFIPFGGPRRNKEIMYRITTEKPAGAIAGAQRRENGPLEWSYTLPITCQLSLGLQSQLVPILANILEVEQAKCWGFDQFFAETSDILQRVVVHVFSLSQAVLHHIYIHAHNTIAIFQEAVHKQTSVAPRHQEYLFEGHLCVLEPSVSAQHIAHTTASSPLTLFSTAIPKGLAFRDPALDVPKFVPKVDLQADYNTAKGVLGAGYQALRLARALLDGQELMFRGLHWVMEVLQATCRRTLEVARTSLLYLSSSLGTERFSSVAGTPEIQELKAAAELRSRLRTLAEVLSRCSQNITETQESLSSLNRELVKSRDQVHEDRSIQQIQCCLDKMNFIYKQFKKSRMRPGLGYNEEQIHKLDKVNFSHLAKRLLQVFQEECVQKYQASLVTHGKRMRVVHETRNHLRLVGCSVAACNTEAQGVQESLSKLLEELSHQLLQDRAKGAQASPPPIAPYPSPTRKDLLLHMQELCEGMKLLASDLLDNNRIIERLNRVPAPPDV
Procedure: as §1

Sequence of YES1 (P07947 whole entry): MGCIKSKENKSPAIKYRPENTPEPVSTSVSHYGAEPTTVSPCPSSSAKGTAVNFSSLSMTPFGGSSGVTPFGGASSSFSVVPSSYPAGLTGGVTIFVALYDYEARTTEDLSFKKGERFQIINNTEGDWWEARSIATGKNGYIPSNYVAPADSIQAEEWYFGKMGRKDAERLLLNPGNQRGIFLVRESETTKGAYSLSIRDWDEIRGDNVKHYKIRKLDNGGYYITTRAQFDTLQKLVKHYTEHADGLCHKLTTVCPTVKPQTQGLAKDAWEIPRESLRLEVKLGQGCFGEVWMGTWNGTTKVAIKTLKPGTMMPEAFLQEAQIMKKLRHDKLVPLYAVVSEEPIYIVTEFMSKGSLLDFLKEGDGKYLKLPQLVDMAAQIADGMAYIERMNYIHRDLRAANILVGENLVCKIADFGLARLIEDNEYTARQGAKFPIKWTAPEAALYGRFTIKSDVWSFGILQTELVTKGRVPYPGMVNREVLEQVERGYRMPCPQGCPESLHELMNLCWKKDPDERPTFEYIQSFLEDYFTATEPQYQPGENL

CC(c1ccccc1)n1c(=O)[nH]c2ncc(-c3ccc(F)cc3)nc21 (stereo not drawn) [Compound 1]
remaining activity at 10 µM [1]: 94% | remaining activity at 10 µM [2]: 101% | remaining activity at 10 µM [3]: 95% | remaining activity at 10 µM [4]: 103% | remaining activity at 10 µM [5]: 88% | remaining activity at 10 µM [6]: 100% | remaining activity at 10 µM [7]: 113% | remaining activity at 10 µM [8]: 90% | remaining activity at 10 µM [9]: 106%

O=c1[nH]c2ncc(-c3ccc(F)cc3)nc2n1CC1CC1 [Compound 10]
remaining activity at 10 µM [1]: 96% | remaining activity at 10 µM [2]: 69% | remaining activity at 10 µM [3]: 100% | remaining activity at 10 µM [4]: 99% | remaining activity at 10 µM [5]: 109% | remaining activity at 10 µM [6]: 93% | remaining activity at 10 µM [7]: 92% | remaining activity at 10 µM [8]: 92% | remaining activity at 10 µM [9]: 94%

O=c1[nH]c2ncc(-c3ccc(F)cc3)nc2n1C1CCCCC1 [Compound 12, 1-Cyclohexyl-6-(4-fluorophenyl)-1H-imidazo[4,5-b]pyrazin-2(3H)-one]
remaining activity at 10 µM [1]: 96% | remaining activity at 10 µM [2]: 97% | remaining activity at 10 µM [3]: 95% | remaining activity at 10 µM [4]: 99% | remaining activity at 10 µM [5]: 119% | remaining activity at 10 µM [6]: 90% | remaining activity at 10 µM [7]: 110% | remaining activity at 10 µM [8]: 100% | remaining activity at 10 µM [9]: 88%

C[C@H](c1ccccc1)n1c(=O)[nH]c2ncc(-c3ccccc3)nc21 [Compound 14, (R)-6-Phenyl-1-(1-phenylethyl)-1H-imidazo[4,5-b]pyrazin-2(3H)-one]
remaining activity at 10 µM [1]: 71% | remaining activity at 10 µM [2]: 80% | remaining activity at 10 µM [3]: 97% | remaining activity at 10 µM [4]: 98% | remaining activity at 10 µM [5]: 93% | remaining activity at 10 µM [6]: 77% | remaining activity at 10 µM [7]: 102% | remaining activity at 10 µM [8]: 88% | remaining activity at 10 µM [9]: 91%
